Laboratory results reported in patent US7816521B2, “1,2,4-benzotriazine-1,4-dioxides” (Auckland Uniservices Limited, priority 2004, dated 2010).

Key:
[1] = tested on: hypoxic cells in HT29 tumours; experiment: HT29 excision assay (drug after 20 Gy radiation, clonogenic survival); assay type: in vivo, human; conditions: for HT29 log kill: log10 kill of hypoxic cells in HT29 tumours, additional to radiation alone, MTD or 75% of MTD, Table 2
From the text: In order to test the validity of this PK/PD model as a tool for predicting the antitumour activity of TPZ analogues, the inventors determined the key PK/PD parameters for 13 TPZ analogues, and TPZ itself, for the HT29 human colon carcinoma cell line. These parameters were then used to calculate the expected killing in hypoxic regions of HT29 tumours following a single intraperitoneal dose of the compounds at their maximum tolerated dose. The results of this calculation were then compared with measured killing of hypoxic cells in HT29 tumours, determined by administering the compounds immediately (within 5 min) after gamma irradiation (cobalt 60, 20 Gy) to sterilise oxygenated cells in the tumours. Tumours were removed 18 hours later and the number of surviving cells determined by clonogenic assay. The measured PK/PD parameters, model prediction (using the above 3D microvascular network), and experimentally determined hypoxic cell kill is shown in Table 1, and the relationship between predicted and measured cell kill in FIG. 4. The prediction is statistically highly significant (p=0.001, Fisher exact test). […] If the extravascular transport component was excluded from the model, the R^2 for this regression was only 0.28 and the relationship was not statistically significant.
Animals were treated with radiation alone (RAD, 20 Gy whole body); RAD+TPZ (316 μmol/kg); compound 3 (562 μmol/kg); RAD+compound 3 (562 μmol/kg). Tumours were excised 18 hr after treatment and clonogenic survival determined by staining colonies 14 days later. Each symbol represents a separate tumour. p<0.01 (one way ANOVA with Dunnett's test) for RAD+compound 3 and for RAD+TPZ versus RAD only. Horizontal lines are the historical means for untreated controls (upper line) and 20 Gy radiation only (lower line).
Compounds were evaluated with single dose radiation using s.c. HT29 tumors (average of two largest diameters 7-10 mm) grown by inoculating 10^7 cells (obtained by enzymatic dissociation of multicellular spheroids). Drugs were administered as single i.p. doses at their MTD with the following groups in each experiment. A: vehicle control, B: test drug, C: Radiation (20 Gy, cobalt-60, whole body irradiation), D: TPZ (316 μmol/kg) 5 min after radiation, E: Test drug 5 min after radiation. Each group included 3 (A, B) or 5 (C-E) mice. Tumors were excised 18 hr after treatment and plated to determine clonogenicity. Hypoxic cytotoxicity is determined by the difference in surviving fraction between groups C and E, while comparison of A and B evaluates oxic cell killing. Total yield of clonogens was used as the key parameter if cell yields were affected by treatment. Results of this assay are illustrated for compound 3 (and TPZ) in FIG. 5.

[2] = tested on: HT29 multicellular layers; assay type: in vitro ADME; conditions: human
Procedure: A: Diagram of a Millicell® CM culture insert used for growing MCLs on a porous, collagen-coated Teflon membrane. B: H&E-stained transverse section of an HT-29 MCL three days after initiating growth with 10^6 cells. The Teflon membrane is ca 30 μm thick. C: Diffusion apparatus for measurement of transport through MCLs. D: Diffusion of TPZ (100 μM) through well oxygenated (open circles) and […] poorly oxygenated (filled circles) HT29 MCLs of equivalent thickness (141±5 μm). Concentrations are normalized to the initial concentration in the donor compartment (Co). The Lines are fits to a reaction-diffusion model. Also shown is the diffusion of compound #20 through a well oxygenated MCL of a similar thickness illustrating the effect of raising the diffusion coefficient from 4×10^−7 cm^2s^−1 to 1.4×10^−6 cm^2s^−1.
The diffusion coefficients in HT29 MCL (DMCL) of compounds representative of the invention were determined either by: • 1. Measurement of drug diffusion in HT29 MCL (grown in culture inserts and seeded at 1×10^6 cells per insert and grown for 3-4 days) in a 2 chamber diffusion apparatus containing culture medium with measurement from both the donor and receiver compartments and gassing at ≧20% O2 to suppress bioreductive metabolism as described in Hicks et al (Cancer Res. 2003, 63, 5970-5977). Samples of medium are taken at intervals, drug concentrations determined by HPLC or LCMS and the concentration-time profile was fitted to Fick's second law of diffusion and the differential equation was solved numerically to obtain the estimate of DMCL.
OR • 2. Calculated from the logistic regression equation
where • a. Log P7.4 is the base 10 logarithm of the octanol-water partition coefficient of the compound at pH 7.4 measured or calculated using the techniques described below • b. HD is the number of hydrogen bond donors (which is the sum of all NH— and OH-groups) • c. HA is the number of hydrogen bond acceptors (which is the sum of all N— and O-atoms) • d. Mr is the molecular weight of the non-ionised drug and a, g, d, a, x0, e, h, and b are regression coefficients as outlined in the table.
Values of the coefficient g are cell line dependent; this value has been determined as 0.3051 (SE 0.0427, CV 13.99%, p<0.001) for SiHa MCLs, and is set at zero for HT29 MCLs.

[3] = tested on: human colon carcinoma cell line HT-29; experiment: Proliferation assay (IC50) under aerobic and hypoxic conditions; assay type: cell-based; conditions: for IC50: Homo sapiens, HT-29, HT29, anoxic, 4 hr exposure; for HCR: hypoxic cytotoxicity ratio: aerobic IC50 / hypoxic IC50, HT29
Procedure: Compounds representative of the invention were evaluated under both aerobic and hypoxic conditions in a proliferation assay (IC50) using the human colon carcinoma cell line HT-29 as previously described [Hay et al, J. Med. Chem, 2003, 46, 169]. For each experiment, compounds were simultaneously tested under both oxic and hypoxic conditions and included TPZ as an independent internal control at the front and back of the assay. In all cases, a 8-methyl-5-nitroquinoline derivative was used as a second internal control to confirm that strict hypoxia was present during the experiment [Siim et al., Br. J. Cancer 1994, 70, 596].

Row | Compound | HT29 log kill [1] | DMCL [2] | diffusion coefficient ([2]; 100 μM) | reduction in diffusion in poorly oxygenated versus well oxygenated HT29 MCLs ([2]; 100 μM) [fold] | IC50 [3] [nM] | HCR [3] | activity against hypoxic cells in HT29 tumours ([1]; relative to radiation alone)
1 | Nc1n[n+]([O-])c2ccccc2[n+]1[O-] [A, tirapazamine, reference compound] | 1.17 | 3.97 × 10^−7 cm^2s^−1 | 4×10^−7 cm^2s^−1 | 2 | – | – | –
2 | Cc1ccc2c(c1)[n+]([O-])c(N)n[n+]2[O-] [B, 6-Methyl-1,2,4-benzotriazin-3-amine 1,4-Dioxide] | 2.165 | 5.43 × 10^−7 cm^2s^−1 | – | – | 12900 | 35.8 | –
3 | Nc1n[n+]([O-])c2cc(Cl)ccc2[n+]1[O-] [C, 7-Chloro-1,2,4-benzotriazin-3-amine 1,4-Dioxide] | −0.007 | 8.70 × 10^−7 cm^2s^−1 | – | – | 730 | 28.5 | –
4 | Nc1n[n+]([O-])c2c(Cl)cccc2[n+]1[O-] [D, 8-Chloro-1,2,4-benzotriazin-3-amine 1,4-Dioxide] | −0.154 | 6.69 × 10^−7 cm^2s^−1 | – | – | 550 | 13.6 | –
5 | CS(=O)(=O)c1ccc2c(c1)[n+]([O-])nc(N)[n+]2[O-] [E, 7-(Methylsulfonyl)-1,2,4-benzotriazin-3-amine 1,4-Dioxide] | −0.028 | 2.13 × 10^−7 cm^2s^−1 | – | – | 9950 | 12.0 | –
6 | Cc1ccc2c(c1)[n+]([O-])nc(NCCN(C)C)[n+]2[O-] [F, 7-Methyl-N-[2-(dimethylamino)ethyl]-1,2,4-benzotriazin-3-amine 1,4-Dioxide] | 0.196 | 5.09 × 10^−7 cm^2s^−1 | – | – | 1080 | 34.3 | –
7 | CCCN(CCC)CCNc1n[n+]([O-])c2ccccc2[n+]1[O-] [G] | 0.248 | 1.71 × 10^−6 cm^2s^−1 | – | – | 1650 | 81.6 | –
8 | Cc1ccc2c(c1)[n+]([O-])c(NCCN(C)C)n[n+]2[O-] [H, N^1,N^1-Dimethyl-N^2-(6-methyl-1,4-dioxido-1,2,4-benzotriazin-3-yl)-1,2-ethanediamine] | 1.001 | 3.99 × 10^−7 cm^2s^−1 | – | – | 1850 | 159.0 | significant activity
9 | CCc1n[n+]([O-])c2ccccc2[n+]1[O-] [I] | 0.886 | 2.61 × 10^−6 cm^2s^−1 | – | – | 6780 | 54.2 | –
10 | COCCc1n[n+]([O-])c2ccccc2[n+]1[O-] [J] | 0.8 | 2.09 × 10^−6 cm^2s^−1 | – | – | 3500 | 49.4 | –
11 | [O-][n+]1nc(NCCCCCCNc2c3ccccc3nc3ccccc23)[n+]([O-])c2ccccc21 [K] | 0.009 | 6.17 × 10^−7 cm^2s^−1 | – | – | 25 | 31.8 | –
12 | CN(CCCNC(=O)c1cccc2cc3ccccc3nc12)CCCNc1n[n+]([O-])c2ccccc2[n+]1[O-] [L] | −0.051 | 3.82 × 10^−7 cm^2s^−1 | – | – | 50 | 154.0 | –
13 | CN(CCCNC(=O)c1cccc2ccc(-c3ccncc3)nc12)CCCNc1n[n+]([O-])c2ccccc2[n+]1[O-] [M] | 0.138 | 9.80 × 10^−8 cm^2s^−1 | – | – | 125 | 119.0 | –
14 | Cc1ccc2c(c1)[n+]([O-])c(NCCCN(C)CCCNC(=O)c1cccc3cc4ccccc4nc13)n[n+]2[O-] [N] | 0.027 | 1.05 × 10^−7 cm^2s^−1 | – | – | 225 | 134.0 | –
